From patent US9452997B2, “Piperidine and piperazine derivatives as autotaxin inhibitors” (Merck Patent GmbH, priority 2009, dated 2016)

biological target: T1, Recombinant autotaxin (Homo sapiens, UniProt Q13822); experiment: Autotaxin assay (Amplex Red, LPC substrate); format: biochemical; settings: recombinant autotaxin, LPC substrate, Amplex Red detection; values given as upper bounds
T1 construct: made in house; host or cells: Hi5 insect cells (baculovirus)
Procedure, shortened: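 Recombinant autotaxin (Hi5 baculovirus, 16 ng) pre-incubated with compound 30 min at 22° C, then reacted with 75 μM egg LPC for 90 min at 37° C. Choline released is coupled to H2O2 and Amplex Red fluorescence (ex 485/em 612 nm). IC50 from ten 1:3 dilutions from 30 μM, duplicates, normalised to 500 μM C14 LPA.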

Row | SMILES | IC50
1 | Cc1cc(CCC(=O)N2CCN(C3CCN(C(=O)c4ccc5[nH]nnc5c4)CC3)CC2)cc(C)c1F [Compound 106, 1-{4-[1-(1H-Benzotriazole-5-carbonyl)-piperidin-4-yl]-piperazin-1-yl}-3-(4-fluoro-3,5-dimethyl-phenyl)-propan-1-one] | < 10000 nM
2 | O=C(OCc1ccc(Cl)c(F)c1)N1CCN(C2CCN(C(=O)c3ccc4[nH]nnc4c3)CC2)CC1 [Compound 117, 4-[1-(1H-Benzotriazole-5-carbonyl)-piperidin-4-yl]-piperazine-1-carboxylic acid 4-chloro-3-fluoro-benzyl ester] | < 1000 nM
3 | O=C(OCc1ccc(C(F)(F)F)c(F)c1F)N1CCC(N2CCN(C(=O)c3ccc4[nH]nnc4c3)CC2)CC1 [Compound 113, 4-[1-(1H-Benzotriazole-5-carbonyl)-piperidin-4-yl]-piperazine-1-carboxylic acid 2,3-dilfuoro-4-trifluoromethyl-benzyl ester] | < 1000 nM
4 | O=C(OCc1cc(Cl)cc(Cl)c1)N1CCC(N2CCN(C(=O)c3ccc4[nH]c(=O)oc4c3)CC2)CC1 [Compound 25, 4-[4-(2-Oxo-2,3-dihydro-benzooxazole-6-carbonyl)-piperazin-1-yl]-piperidine-1-carboxylic acid 3,5-dichloro-benzyl ester] | < 1000 nM
5 | O=C(OCc1cc(F)cc(C(F)(F)F)c1)N1CCC(N2CCN(C(=O)c3ccc4[nH]nnc4c3)CC2)CC1 [Compound 75, 4-[4-(1H-Benzotriazole-5-carbonyl)-piperazin-1-yl]-piperidine-1-carboxylic acid 3-fluoro-5-trifluoromethyl-benzyl ester] | < 1000 nM
6 | O=C(CCc1cc(F)c(F)c(Cl)c1)N1CCN(C2CCN(C(=O)c3ccc4[nH]nnc4c3)CC2)CC1 [Compound 129, 1-{4-[1-(1H-Benzotriazole-5-carbonyl)-piperidin-4-yl]-piperazin-1-yl}-3-(3-chloro-4,5-difluoro-phenyl)-propan-1-one] | < 10000 nM
7 | O=C(CCc1ccc(Cl)cc1F)N1CCN(C2CCN(C(=O)c3ccc4[nH]nnc4c3)CC2)CC1 [Compound 67, 1-{4-[1-(1H-Benzotriazole-5-carbonyl)-piperidin-4-yl]-piperazin-1-yl}-3-(4-chloro-2-fluoro-phenyl)-propan-1-one] | < 10000 nM
8 | O=C(OCc1cc(Cl)cc(C(F)(F)F)c1F)N1CCN(C2CCN(C(=O)c3ccc4[nH]nnc4c3)CC2)CC1 [Compound 99, 4-[1-(1H-Benzotriazole-5-carbonyl)-piperidin-4-yl]-piperazine-1-carboxylic acid 5-chloro-2-fluoro-3-trifluoromethyl-benzyl ester] | < 1000 nM
9 | O=C(Nc1ccc2[nH]nnc2c1)c1ccc(N2CCN(C(=O)OCc3ccc(C(F)(F)F)cc3)CC2)nc1 [Compound 111, 4-[5-(1H-Benzotriazol-5-ylcarbamoyl)-pyridin-2-yl]-piperazine-1-carboxylic acid 4-trifluoromethyl-benzyl ester] | < 10000 nM
10 | O=C(CCc1cc(Cl)cc(Cl)c1)N1CCN(C2CCN(C(=O)c3ccc4[nH]nnc4c3)CC2)CC1 [Compound 69, 1-{4-[1-(1H-Benzotriazole-5-carbonyl)-piperidin-4-yl]-piperazin-1-yl}-3-(3,5-dichloro-phenyl)-propan-1-one] | < 10000 nM
11 | O=C(c1ccc2[nH]nnc2c1)N1CCC(N2CCN(C(=O)c3ccccc3-c3cccc(C(F)(F)F)c3)CC2)CC1 [Compound 125, (1H-Benzotriazol-5-yl)-{4-[4-(3′-trifluoromethyl-biphenyl-2-carbonyl)-piperazin-1-yl]-piperidin-1-yl}-methanone] | < 10000 nM
12 | Cn1nc2ccccc2c1COC(=O)N1CCN(C2CCN(C(=O)c3ccc4[nH]nnc4c3)CC2)CC1 [Compound 134, 4-[1-(1H-Benzotriazole-5-carbonyl)-piperidin-4-yl]-piperazine-1-carboxylic acid 2-methyl-2H-indazol-3-ylmethyl ester] | < 30000 nM
13 | COc1ccc(Cl)cc1COC(=O)N1CCN(C2CCN(C(=O)c3ccc4[nH]nnc4c3)CC2)CC1 [Compound 38, 4-[1-(1H-Benzotriazole-5-carbonyl)-piperidin-4-yl]-piperazine-1-carboxylic acid 5-chloro-2-methoxy-benzyl ester] | < 1000 nM

Further lines, results first:

Row | IC50 | SMILES
14 | < 10000 nM | C[C@H](OC(=O)N1CCN(C2CCN(C(=O)c3ccc4[nH]nnc4c3)CC2)CC1)c1cc(C(F)(F)F)cc(C(F)(F)F)c1 [Compound 171, 4-[1-(1H-Benzotriazole-5-carbonyl)-piperidin-4-yl]-piperazine-1-carboxylic acid (S)-1-(3,5-bis-trifluoromethyl-phenyl)-ethyl ester]
15 | < 1000 nM | O=C(OCc1ccc(SC(F)F)cc1)N1CCN(C2CCN(C(=O)c3ccc4[nH]nnc4c3)CC2)CC1 [Compound 168, 4-[1-(1H-Benzotriazole-5-carbonyl)-piperidin-4-yl]-piperazine-1-carboxylic acid 4-difluoromethylsulfanyl-benzyl ester]
16 | < 1000 nM | O=C(OCc1cc(-c2ccsc2)cs1)N1CCN(C2CCN(C(=O)c3ccc4[nH]nnc4c3)CC2)CC1 [Compound 135, 4-[1-(1H-Benzotriazole-5-carbonyl)-piperidin-4-yl]-piperazine-1-carboxylic acid [3,3′]bithiophenyl-5-ylmethyl ester]
17 | < 1000 nM | O=C(CCc1ccc(C(F)(F)F)cc1)N1CCN(C2CCN(C(=O)c3ccc4[nH]nnc4c3)CC2)CC1 [Compound 32, 1-{4-[1-(1H-Benzotriazole-5-carbonyl)-piperidin-4-yl]-piperazin-1-yl}-3-(4-trifluoromethyl-phenyl)-propan-1-one]
18 | < 1000 nM | O=C(OCc1ccc(Cl)cc1F)N1CCC(N2CCN(C(=O)c3ccc4[nH]nnc4c3)CC2)CC1 [Compound 62, 4-[4-(1H-Benzotriazole-5-carbonyl)-piperazin-1-yl]-piperidine-1-carboxylic acid 4-chloro-2-fluoro-benzyl ester]
19 | < 1000 nM | CC(C)c1ccc(COC(=O)N2CCN(C3CCN(C(=O)c4ccc5[nH]nnc5c4)CC3)CC2)cc1 [Compound 43, 4-[1-(1H-Benzotriazole-5-carbonyl)-piperidin-4-yl]-piperazine-1-carboxylic acid 4-isopropyl-benzyl ester]
20 | < 10000 nM | O=C(Nc1ccc(-n2cccn2)cc1)C1CC(=O)N(C2CCN(C(=O)OCc3cc(Cl)cc(Cl)c3)CC2)C1 (centres unmarked) [Compound 55, 4-[2-Oxo-4-(4-pyrazol-1-yl-phenylcarbamoyl)-pyrrolidin-1-yl]-piperidine-1-carboxylic acid 3,5-dichloro-benzyl ester]
